Literature values in US20180256731A1, “NOVEL INSULIN ANALOG AND USE THEREOF” (HANMI PHARM. CO., LTD, priority 2013, published 2018).

Settings: commercially available long-acting insulin

| Substance | lasting for (duration) [h] |
| --- | --- |
| insulin detemir | 18 to 22 |
| insulin glargine | 20 to 22 |
